Experimental findings from patent US9242984B2, “Pyrazolyl derivatives as Syk inhibitors” (Merck Sharp & Dohme Corp., priority 2012, dated 2016) are described below.

pIC50: −log10 of the molar value.

The target of one assay is T1, recombinant human Syk (GST-hSyk fusion protein) (Homo sapiens, UniProt P43405).
T1 construct: purchased Carna Biosciences 08-176
As to the kind of experiment: Homogeneous Time-Resolved Fluorescence (HTRF) assay for the recombinant human Syk enzyme. Format: biochemical. The following applies: 10-dose titration, 25 μM ATP; read-out: rhSYK IC50. In short, it runs like this: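 IC50 came from a four-parameter fit over ten doses, 10 μM to 0.508 nM, with HTRF read-out (Eu-anti-pTyr antibody, SA-APC, EDTA stop, 30 min). The enzyme, 5 pM GST-hSyk, met compound for 10 min, then phosphorylated 250 nM biotin-peptide with 25 μM ATP and 5 mM Mg for 45 min at room temperature, pH 7.5.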
On the technique in general: In TR-FRET formats the signal depends on donor and acceptor labels being close together.
As for `Cc1cc(Nc2nccc(C(F)(F)F)n2)cc(-c2cnn(C[C@H](O)C(=O)NCCO)c2)c1` [Example 6.1, (2S)-2-hydroxy-N-(2-hydroxyethyl)-3-[4-(3-methyl-5-{[4-(trifluoromethyl)pyrimidin-2-yl]amino}phenyl)-1H-pyrazol-1-yl]propanamide], the pIC50 was 7.68.

Staying with this assay, now noted: IC50 class; 10-dose titration, 25 μM ATP; read-out: rhSYK Activity.
Turning to `Cc1cc(Nc2nccc(C(F)F)n2)cc(-c2cnn(CC(O)Cn3cccn3)c2)c1` (centres unmarked) [Example 5.25, 1-[4-(3-{[4-(difluoromethyl)pyrimidin-2-yl]amino}-5-methylphenyl)-1H-pyrazol-1-yl]-3-(1H-pyrazol-1-yl)propan-2-ol], the pIC50 was at least 7.00.
The same measure, in the same setting: in the case of `Cc1cc(Nc2nccc(C(F)F)n2)cc(-c2cnn(CC(O)c3ccccn3)c2)c1` (centres unmarked) [Example 5.26, 2-[4-(3-{[4-(difluoromethyl)pyrimidin-2-yl]amino}-5-methylphenyl)-1H-pyrazol-1-yl]-1-pyridin-2-ylethanol] it was at least 7.00; in that of `Cc1cc(Nc2nccc(C(F)F)n2)cc(-c2cnn(CC(O)CC3(O)CCCCC3)c2)c1` (centres unmarked) [Example 5.27, 1-{3-[4-(3-{[4-(difluoromethyl)pyrimidin-2-yl]amino}-5-methylphenyl)-1H-pyrazol-1-yl]-2-hydroxypropyl}cyclohexanol], at least 7.00.
The same measure, in the same setting: in the case of `Cc1cc(Nc2nccc(C(F)F)n2)cc(-c2cnn(CC(O)CC3COC(=O)C3)c2)c1` (centres unmarked) [Example 5.28, 4-{3-[4-(3-{[4-(difluoromethyl)pyrimidin-2-yl]amino}-5-methylphenyl)-1H-pyrazol-1-yl]-2-hydroxypropyl}dihydrofuran-2(3H)-one] it was at least 7.00; in that of `Cc1cc(Nc2nccc(C(F)F)n2)cc(-c2cnn(CC(O)CC(C)O)c2)c1` (centres unmarked) [Example 5.29, 1,3,5-trideoxy-1-[4-(3-{[4-(difluoromethyl)pyrimidin-2-yl]amino}-5-methylphenyl)-1H-pyrazol-1-yl]pentitol], at least 7.00.
On the same count and under the same terms, under `Cc1cc(Nc2nccc(C(F)F)n2)cc(-c2cnn(CC(O)C(C)(C)C)c2)c1` (centres unmarked) [Example 5.30, 1-[4-(3-{[4-(difluoromethyl)pyrimidin-2-yl]amino}-5-methylphenyl)-1H-pyrazol-1-yl]-3,3-dimethylbutan-2-ol] stands at least 7.00; under `Cc1cc(Nc2nccc(C(F)F)n2)cc(-c2cnn(CC(O)COCC(F)(F)F)c2)c1` (centres unmarked) [Example 5.31, 1-[4-(3-{[4-(difluoromethyl)pyrimidin-2-yl]amino}-5-methylphenyl)-1H-pyrazol-1-yl]-3-(2,2,2-trifluoroethoxy)propan-2-ol], at least 7.00; under `CCC(O)(CC)Cn1cc(-c2cc(C)cc(Nc3nccc(C(F)F)n3)c2)cn1` [Example 5.32, 3-{[4-(3-{[4-(difluoromethyl)pyrimidin-2-yl]amino}-5-methylphenyl)-1H-pyrazol-1-yl]methyl}pentan-3-ol], at least 7.00.
As for `Cc1cc(Nc2nccc(C(F)F)n2)cc(-c2cnn(CC(O)CN3CCCC3=O)c2)c1` (centres unmarked) [Example 5.33, 1-{3-[4-(3-{[4-(difluoromethyl)pyrimidin-2-yl]amino}-5-methylphenyl)-1H-pyrazol-1-yl]-2-hydroxypropyl}pyrrolidin-2-one], the pIC50 was at least 7.00.
Same read-out and setting: in the case of `Cc1cc(Nc2nccc(C(F)F)n2)cc(-c2cnn(CC(O)C3CCCNC3)c2)c1` (centres unmarked) [Example 5.34, 2-[4-(3-{[4-(difluoromethyl)pyrimidin-2-yl]amino}-5-methylphenyl)-1H-pyrazol-1-yl]-1-piperidin-3-ylethanol] it was at least 7.00.
Still for that read-out and setting: under `Cc1cc(Nc2nccc(C(F)F)n2)cc(-c2cnn(CC(C)(C)O)c2)c1` [Example 5.35, 1-[4-(3-{[4-(difluoromethyl)pyrimidin-2-yl]amino}-5-methylphenyl)-1H-pyrazol-1-yl]-2-methylpropan-2-ol] stands at least 7.00.
Still for that read-out and setting: under `Cc1cc(Nc2nccc(C(F)F)n2)cc(-c2cnn(CC(O)C(=O)O)c2)c1` (centres unmarked) [Example 5.36, 3-[4-(3-{[4-(difluoromethyl)pyrimidin-2-yl]amino}-5-methylphenyl)-1H-pyrazol-1-yl]-2-hydroxypropanoic acid] stands at least 7.00; under `Cc1cc(Nc2nccc(C(F)F)n2)cc(-c2cnn(CC(O)CN)c2)c1` (centres unmarked) [Example 5.37, 1-amino-3-[4-(3-{[4-(difluoromethyl)pyrimidin-2-yl]amino}-5-methylphenyl)-1H-pyrazol-1-yl]propan-2-ol], at least 7.00; under `Cc1cc(Nc2nccc(C(F)(F)F)n2)cc(-c2cnn(C3CCC(C(=O)O)CC3O)c2)c1` (centres unmarked) [Example 5.38, 3-hydroxy-4-[4-(3-methyl-5-{[4-(trifluoromethyl)pyrimidin-2-yl]amino}phenyl)-1H-pyrazol-1-yl]cyclohexanecarboxylic acid], at least 7.00.
For the compound `Cc1cc(Nc2nccc(C(F)(F)F)n2)cc(-c2cnn(C3CCC(C(=O)O)CC3O)c2)c1` (centres unmarked) [Example 5.39, 3-hydroxy-4-[4-(3-methyl-5-{[4-(trifluoromethyl)pyrimidin-2-yl]amino}phenyl)-1H-pyrazol-1-yl]cyclohexane-carboxylic acid], the pIC50 was at least 7.00.
Same read-out and setting: under `Cc1cc(Nc2nccc(C(F)F)n2)cc(-c2cnn(C[C@]3(O)C[C@H](C#N)C3)c2)c1` [Example 5.40, trans-3-{[4-(3-{[4-(difluoromethyl)pyrimidin-2-yl]amino}-5-methylphenyl)-1H-pyrazol-1-yl]methyl}-3-hydroxycyclobutane-carbonitrile] stands at least 7.00; under `Cc1cc(Nc2nccc(C(F)F)n2)cc(-c2cnn(CC3(O)CCC3)c2)c1` [Example 5.41, 1-{[4-(3-{[4-(difluoromethyl)pyrimidin-2-yl]amino}-5-methylphenyl)-1H-pyrazol-1-yl]methyl}cyclobutanol], at least 7.00; under `Cc1cc(Nc2nccc(C(F)F)n2)cc(-c2cnn(CC3(O)CCS(=O)(=O)CC3)c2)c1` [Example 5.42, 4-{[4-(3-{[4-(difluoromethyl)pyrimidin-2-yl]amino}-5-methylphenyl)-1H-pyrazol-1-yl]methyl}tetrahydro-2H-thiopyran-4-ol 1,1-dioxide], at least 7.00.
Still for that read-out and setting: under `Cc1cc(Nc2nccc(C(F)(F)F)n2)cc(-c2cnn(C[C@H](O)C(=O)NCCO)c2)c1` [Example 6.1, (2S)-2-hydroxy-N-(2-hydroxyethyl)-3-[4-(3-methyl-5-{[4-(trifluoromethyl)pyrimidin-2-yl]amino}phenyl)-1H-pyrazol-1-yl]propanamide] stands at least 7.00; under `Cc1cc(Nc2nccc(OCCO)n2)cc(-c2cnn(C[C@H](O)C(N)=O)c2)c1` [Example 6.2, (2S)-2-hydroxy-3-[4-(3-{[4-(2-hydroxyethoxy)pyrimidin-2-yl]amino}-5-methylphenyl)-1H-pyrazol-1-yl]propanamide], at least 7.00; under `Cc1cc(Nc2nccc(C)n2)cc(-c2cnn(C[C@H](O)C(N)=O)c2)c1` [Example 6.3, (2S)-2-hydroxy-3-(4-{3-methyl-5-[(4-methylpyrimidin-2-yl)amino]phenyl}-1H-pyrazol-1-yl)propanamide], at least 7.00.
The same measure, in the same setting: under `COc1ccnc(Nc2cc(C)cc(-c3cnn(C[C@H](O)C(N)=O)c3)c2)n1` [Example 6.4, (2S)-2-hydroxy-3-(4-{3-[(4-methoxypyrimidin-2-yl)amino]-5-methylphenyl}-1H-pyrazol-1-yl)propanamide] stands at least 7.00; under `Cc1cc(Nc2nccc(C3CC3)n2)cc(-c2cnn(C[C@H](O)C(N)=O)c2)c1` [Example 6.5, (2S)-3-(4-{3-[(4-cyclopropyl-pyrimidin-2-yl)amino]-5-methylphenyl}-1H-pyrazol-1-yl)-2-hydroxypropan-amide], at least 7.00.
On to `Cc1cc(Nc2nccc(OC(C)C)n2)cc(-c2cnn(C[C@H](O)C(N)=O)c2)c1` [Example 6.6, (2S)-2-hydroxy-3-[4-(3-methyl-5-{[4-(1-methyl-ethoxy)pyrimidin-2-yl]amino}-phenyl)-1H-pyrazol-1-yl]-propanamide], for which the pIC50 was at least 7.00.
Still for that read-out and setting: under `Cc1cc(Nc2nccc(C(C)(C)C)n2)cc(-c2cnn(C[C@H](O)C(N)=O)c2)c1` [Example 6.7, (2S)-3-(4-{3-[(4-tert-butyl-pyrimidin-2-yl)amino]-5-methylphenyl}-1H-pyrazol-1-yl)-2-hydroxy-propanamide] stands at least 7.00; under `Cc1cc(Nc2nccc(C(C)F)n2)cc(-c2cnn(C[C@H](O)C(N)=O)c2)c1` (stereo partly drawn) [Example 6.8, (2S)-3-[4-(3-{[4-(1-fluoroethyl)-pyrimidin-2-yl]amino}-5-methylphenyl)-1H-pyrazol-1-yl]-2-hydroxy-propanamide], at least 7.00.
Same read-out and setting: under `Cc1cc(Nc2nccc(C(C)C)n2)cc(-c2cnn(C[C@H](O)C(N)=O)c2)c1` [Example 6.9, (2S)-2-hydroxy-3-[4-(3-methyl-5-{[4-(1-methyl-ethyl)pyrimidin-2-yl]-amino}phenyl)-1H-pyrazol-1-yl]propanamide] stands at least 7.00; under `Cc1cc(Nc2nccc(C(F)(F)F)n2)cc(-c2cnn(C[C@H](O)C(=O)NCCCN3CCCC3=O)c2)c1` [Example 6.10, (2S)-2-hydroxy-3-[4-(3-methyl-5-{[4-(trifluorometh-yl)pyrimidin-2-yl]amino}phenyl)-1H-pyrazol-1-yl]-N-[3-(2-oxopyrrolidin-1-yl)propyl]propan-amide], 6.00 to 7.00; under `CNC(=O)[C@@H](O)Cn1cc(-c2cc(C)cc(Nc3nccc(C(F)(F)F)n3)c2)cn1` [Example 6.11, (2S)-2-hydroxy-N-methyl-3-[4-(3-methyl-5-{[4-(trifluorometh-yl)pyrimidin-2-yl]amino}phenyl)-1H-pyrazol-1-yl]propanamide], at least 7.00.
The same measure, in the same setting: under `COCCCNC(=O)[C@@H](O)Cn1cc(-c2cc(C)cc(Nc3nccc(C(F)(F)F)n3)c2)cn1` [Example 6.12, (2S)-2-hydroxy-N-(3-methoxypropyl)-3-[4-(3-methyl-5-{[4-(trifluorometh-yl)pyrimidin-2-yl]amino}phenyl)-1H-pyrazol-1-yl]propanamide] stands at least 7.00.
In the case of `COCCNC(=O)[C@@H](O)Cn1cc(-c2cc(C)cc(Nc3nccc(C(F)(F)F)n3)c2)cn1` [Example 6.13, (2S)-2-hydroxy-N-(2-methoxyethyl)-3-[4-(3-methyl-5-{[4-(trifluorometh-yl)pyrimidin-2-yl]amino}phenyl)-1H-pyrazol-1-yl]propanamide], the pIC50 was at least 7.00.
